According to publication PMC12152883, “Bile acids inhibit equilibrative adenosine transport to alter adenosine receptor signaling in cholestasis” (The Journal of Biological Chemistry, 2025):

Legend:
HepG2 cell line = test: 3H-nucleoside uptake inhibition by BAs in HepG2 cell line; type: cell-based; conditions: BA 100 μM; for % Inhibition of Ado uptake, HepG2 cell line, Sodium buffer / % Inhibition of Ado uptake, HepG2 cell line, Sodium-free buffer: 3H-Ado 0.02 μM; for extent of inhibition of guanosine transport, HepG2 cells: 3H-guanosine 0.02 μM, Na+-free
Description: In the presence of multiple substrates with similar affinities, the abundant substrate molecules can compete for binding to the transport sites, reducing the transport of the limiting substrate molecules ([31]). […] We tested the possibility of BA-mediated nucleoside transport inhibition using a HeLa cell line (expressing ENTs (ENT1, ENT2) ([32])) and a HepG2 cell line (expressing both ENTs (ENT1, ENT2) and CNTs (CNT1, CNT2) ([33])) to conduct Ado uptake inhibition assays in Na^+-containing (where both ENTs and CNTs are capable of transport) and Na^+-free (only ENTs are capable of transport) buffers (Fig. 3 and Table 1).
The bars represent the mean ± SD (n = 3). A representative experiment from 3 to 5 independent experiments is presented. Statistical analysis was performed using one-way ANOVA with Dunnett’s multiple comparisons test; ∗p < 0.032, ∗∗p < 0.0021, ∗∗∗p < 0.0002.
HeLa (CCL-2) and HepG2 (HB_8065) were procured from ATCC. Both cell lines were cultured in Eagle's minimum essential medium and Dulbecco's modified Eagle's medium, respectively, supplemented with 10% fetal bovine serum and penicillin-streptomycin (1X). After cells were tested free for mycoplasma contamination, they were plated in 24-well plates, and transport assays were conducted when the cells were 80% confluent. The cells were briefly rinsed with PBS, and then the uptake of radiolabeled substrates was measured after a 5 min incubation in sodium containing (130 mM NaCl, 20 mM Tris–HCl, 3 mM K2HPO4, 1 mM MgCl2.6H2O, 2 mM CaCl2, 5 mM glucose, pH 7.4) or sodium-free (130 mM N-methyl-D-glucamin, 20 mM Tris–HCl, 3 mM K2HPO4, 1 mM MgCl2.6H2O, 2 mM CaCl2, 5 mM glucose, pH 7.4) transport buffers at 37 °C. Uptake was terminated by washing the cells three times with ice-cold arrest buffer containing 20 mM uridine. The cells were shaken for 30 min in 10% SDS for complete dissolution, after which the radioactivity was quantified with a Beckman liquid scintillation counter. The data are presented as the mean ± SD (n = 3).

ENT2 = molecular target: T1, ENT2 (Homo sapiens, UniProt Q14542); test: Radiolabeled BA transport in ENT2 mRNA-injected Xenopus oocytes; type: cell-based; parameters: expressed in transfected cells; host or cells: Xenopus laevis oocytes injected with in vitro-transcribed capped mRNA from pOX-hENT2; conditions: for fold increased transport activity compared with H2O-injected oocytes: 3H-labelled BA, Na+-containing buffer, pH 7.4
T1 sequence (Q14542 1-456): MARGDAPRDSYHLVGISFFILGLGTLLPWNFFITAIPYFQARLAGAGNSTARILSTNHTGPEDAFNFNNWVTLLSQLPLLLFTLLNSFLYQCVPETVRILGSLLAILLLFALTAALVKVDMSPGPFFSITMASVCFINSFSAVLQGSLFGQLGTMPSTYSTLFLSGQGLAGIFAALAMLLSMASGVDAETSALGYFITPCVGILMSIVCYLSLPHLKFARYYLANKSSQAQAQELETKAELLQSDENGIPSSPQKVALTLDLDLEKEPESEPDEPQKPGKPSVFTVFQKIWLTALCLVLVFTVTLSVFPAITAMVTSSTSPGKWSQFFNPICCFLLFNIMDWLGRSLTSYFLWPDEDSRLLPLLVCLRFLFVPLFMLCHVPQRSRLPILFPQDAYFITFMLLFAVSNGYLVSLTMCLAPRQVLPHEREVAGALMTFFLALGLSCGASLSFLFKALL
Method: We used a Xenopus oocyte-based transport assay that was previously used to examine BA transport by plasma membrane–directed ENT3 with a truncated N-terminus (that harbors lysosomal targeting motif) to experimentally verify whether ENT2 is capable of translocating BAs across the cell membrane ([24]). We tested both ENT1 and ENT2 along with CNT2, a purine nucleoside-specific concentrative transporter, to investigate their capacities to transport radiolabeled BAs. […] Transport was measured at pH 7.4, which is the closest pH to the pH of the extracellular fluid in which cells are exposed to solutes such as BAs to conduct plasma membrane transport ([29]).
The generated pOX expression constructs were linearized with either the Not1 or Sac1 restriction enzymes. The digested products were purified via phenol‒chloroform extraction. The mRNAs were synthesized using mMESSAGE mMACHINE (Ambion) transcription kits according to the manufacturer’s instructions. The mRNAs were purified via lithium precipitation. Oocytes were procured from Ecocyte. Prior to experiments, procured oocytes were defolliculated by treating with collagenase A-OR II solution followed by washing with Barth’s solution. Following microscopic verification, selected oocytes were incubated to recover overnight at 25 °C in a shaker incubator. Fifty nanoliters (400–800 ng/μl) of equal amounts of mRNAs were injected into defolliculated oocytes the next day. Expression of plasmids was analyzed after RNA isolation from oocyte extracts and conducting qPCR analysis with gene-specific primers as described earlier ([30]). The injected oocytes were incubated at 15 °C for 24 h before transport assays were performed. The uptake of radiolabeled substrates was measured after a 30 min incubation in transport buffer (100 mM NaCl, 2 mM KCl, 1 mM CaCl2, 1 mM MgCl2, and 10 mM Hepes, pH 7.4) at room temperature. Uptake was terminated by washing the oocytes three times with arrest buffer containing 20 mM uridine. Individual oocytes were shaken overnight in 10% SDS for complete dissolution, and then the radioactivity was quantified with a Beckman liquid scintillation counter. The data are presented as the mean ± SD (n = 8–12 oocytes). A representative experiment from 3 to 5 independent experiments is presented.

C[C@H](CCC(=O)O)[C@H]1CC[C@H]2[C@@H]3[C@H](O)C[C@@H]4C[C@H](O)CC[C@]4(C)[C@H]3C[C@H](O)[C@]12C [CA, cholic acid]
% Inhibition of Ado uptake, HepG2 cell line, Sodium buffer (HepG2 cell line): n.s.
% Inhibition of Ado uptake, HepG2 cell line, Sodium-free buffer (HepG2 cell line): 59.86 ± 0.19%
extent of inhibition of guanosine transport, HepG2 cells (HepG2 cell line): 12%
Km (ENT2; oocytes, Fig. 2B): ~195 µM
Vmax of BA transport by ENT2 (ENT2; oocytes, Fig. 2B): 2.84 pmol/oocyte∗30 min
pH dependence of 3H-CA transport mediated by ENT2 (ENT2; pH 5.5 to pH 7.4): not dependent on pH

C[C@H](CCC(=O)O)[C@H]1CC[C@H]2[C@@H]3CC[C@@H]4C[C@H](O)CC[C@]4(C)[C@H]3C[C@H](O)[C@]12C [DCA, deoxycholic acid]
% Inhibition of Ado uptake, HepG2 cell line, Sodium buffer (HepG2 cell line): n.s.
% Inhibition of Ado uptake, HepG2 cell line, Sodium-free buffer (HepG2 cell line): 49.36 ± 0.02%
extent of inhibition of guanosine transport, HepG2 cells (HepG2 cell line): 12%
fold increased transport activity compared with H2O-injected oocytes (ENT2): 1.78 fold
Vmax of BA transport by ENT2 (ENT2; oocytes, Fig. 2B): 3.359 pmol/oocyte∗30 min

C[C@H](CCC(=O)NCCS(=O)(=O)O)[C@H]1CC[C@H]2[C@@H]3[C@H](O)C[C@@H]4C[C@H](O)CC[C@]4(C)[C@H]3C[C@H](O)[C@]12C [TCA, taurocholic acid]
% Inhibition of Ado uptake, HepG2 cell line, Sodium buffer (HepG2 cell line): n.s.
% Inhibition of Ado uptake, HepG2 cell line, Sodium-free buffer (HepG2 cell line): 62.36 ± 0.03%
extent of inhibition of guanosine transport, HepG2 cells (HepG2 cell line): 17.5%
fold increased transport activity compared with H2O-injected oocytes (ENT2): 2.23 fold
